Test results as given in publication PMC8400343, “Synthesis and Evaluation of the Antidepressant-like Properties of HBK-10, a Novel 2-Methoxyphenylpiperazine Derivative Targeting the 5-HT1A and D2 Receptors” (Pharmaceuticals, 2021).
Where a name gives a salt, the structure may show the parent alone. Read-outs that look alike come from different tables or passages of the source. Marks after values point to notes of the source that are not given here.

Columns and labels:
[1] = MLMs, cited from earlier work; for % Remaining after 30 min: protein concentration 0.5
mice [2] = experiment: Forced swim test in naive mice; format: in vivo, mouse; details: alone
Procedure: Adult male Albino-Swiss mice (CD-1, 8 weeks old, 18–21g: Jagiellonian University Medical College, Krakow, Poland) were used in all experiments. Unless stated otherwise, the animals were kept in groups of 10 mice in standard cages (37 cm × 21 cm × 15 cm) at a room temperature (22 ± 2 °C), on a 12 h light/dark cycle (lights on 7:00) with ad libitum access to food and water. Mice were used only once in each test. Behavioral experiments were performed between 8 am and 4 pm and evaluated by a trained observer blind to the treatments. Mice were handled for 1 week before starting the experimental procedures. Animals were randomly allocated to the treatment using a computer-generated sequence, and researchers making measurements on the animals or analyzing the results were blind to the allocation. Moreover, experimental groups were distributed across multiple cages, and the location of the mouse cages in the room was changed following each day.
HBK-10, WAY-100635 (Sigma, Darmstadt, Germany), p-chlorophenylalanine (pCPA; Sigma, Darmstadt, Germany), fluoxetine (Sigma, Darmstadt, Germany), reboxetine (Sigma, Darmstadt, Germany) and bupropion (Sigma, Darmstadt, Germany), were suspended in 1% Tween, and administered ip at a volume of 10 mL/kg 30 min before each behavioral test. The control groups received saline ip 30 min prior to testing. The doses of fluoxetine, reboxetine and bupropion as well as WAY-100635 and pCPA were based on our previous studies with 2-methoxyphenylpiperazine derivatives.
(§1) The experiment was performed on mice according to the method described by Porsolt et al. and as previously described. Mice were placed individually in glass cylinders (height 25 cm, diameter 10 cm) filled with water at 24 ± 1 °C to a depth of 10 cm and left there for 6 min. Following a 2 min habituation period, total time spent immobile was recorded during the next 4 min. The animal was considered as immobile when it remained floating passively in the water, making only small movements to keep its head above the water. The experiments were video-recorded and scored using elevenmaze.com software by a trained observer blind to the treatments.
To assess the involvement of a serotonergic system in the antidepressant-like activity of tested compounds in the forced swim test, the mice were pretreated with pCPA (tryptophan hydroxylase inhibitor) according to the method previously described. […]. Twenty-four hours after the last pCPA administration, we injected mice with 1% Tween ip or tested compound. We performed the forced swim test 30 min after the administration.
The putative involvement of 5-HT1A receptors in the antidepressant-like effect of tested compound was studied using WAY-100635 (a selective 5-HT1A receptor antagonist). WAY-100635 at a dose of 0.1 mg/kg was administered sc 15 min prior to the injection of HBK-10. After 30 min the forced swim test was performed. The behaviorally ineffective dose of WAY-100635 used in the experiments was based on our previous experiments.

serotonin level = tested on: serotonin level; design: method as in PMID 9044239; details: 3-day treatment with pCPA; cited from earlier work
5-HT2A = target: 5-HT2A; design: method as in PMID 10073136; details: cited from earlier work
5-HT1A = target: 5-HT1A; design: method as in PMID 10073136; details: cited from earlier work
α1-adrenoceptor = target: α1-adrenoceptor; design: method as in PMID 10073136; details: cited from earlier work
[3] = tested on: corticosterone-treated mice; experiment: Forced swim test in corticosterone-induced mouse model of depression; format: in vivo; details: fluoxetine 15 mg/kg ip, chronic (3 weeks)
Procedure: as §1
(§2) Mice were injected with corticosterone (sc, 20 mg/kg) at random times during the light phase for 21 days. The dose and route of administration of corticosterone were based on our previous study. Control mice received saline containing 0.1% dimethyl sulfoxide (DMSO) and 0.1% Tween (sc). For the next 21 days, 30 min before the corticosterone injection, mice were injected with saline, HBK-10 (0.625 or 1.25 mg/kg), or fluoxetine (15 mg/kg) (ip). Twenty-four hours after the last injection, animals were tested in the forced swim test and locomotor activity test (Figure 8).

[4] = tested on: corticosterone-treated mice; experiment: Locomotor activity in corticosterone-treated mice; format: in vivo, mouse; details: 15 mg/kg ip chronic, 4 min
Procedure: The locomotor activity of mice was measured as previously described. We used photoresistor actometers (Ugo Basile, Italy) connected to a counter for the recording of light-beam interruptions. Mice were placed individually in cages for 30 min, and the number of crossings of the light beams was recorded as the locomotor activity for 4 min.
as §2

mice [5] = details: i.p.; cited from earlier work
[6] = target: voltage-sensitive calcium channels (Cav); design: method as in PMID 10073136; details: read-out: Ki Cav [3H]-nitrendipine; cited from earlier work
mice [7] = details: i.p.; cited from earlier work; remark: listed apart in the source

O=C1CC2(CCCC2)CC(=O)N1CCCCN1CCN(c2ncccn2)CC1 [Buspirone]
% Remaining after 30 min [1]: 0.29 ^a %
% Remaining after 30 min ([1]; listed as buspirone): lower than 1%

N[C@@H](Cc1ccc(Cl)cc1)C(=O)O (racemic) [pCPA, p-chlorophenylalanine]
Effect on immobility in the forced swim test (mice [2]; pCPA 200 mg/kg ip once daily for three days): had no effect on the immobility
Reduction of serotonin level in midbrain (serotonin level): 24%
Reduction of serotonin level in the cortical regions (serotonin level): around 30%

COc1ccccc1N1CCN(CCCOc2c(C)cccc2C)CC1 [Compd. I, 1-[3-(2,6-dimethylphenoxy)propyl]-4-(2-methoxyphenyl)piperazine hydrochloride]
Ki (5-HT2A): 192 nM
Ki (5-HT1A): 4.9 nM
Ki (α1-adrenoceptor): 2.1 nM

COc1ccccc1N1CCN(CCN(C(=O)C2CCCCC2)c2ccccn2)CC1 [WAY-100635, reference compound]
Effect on immobility in the forced swim test (mice [2]; WAY-100635 0.1 mg/kg sc): had no effect on the immobility

O=C1CCc2ccc(OCCCCN3CCN(c4cccc(Cl)c4Cl)CC3)cc2N1 [Aripiprazole]
t1/2 ([1]; protein concentration 1.0): 217 ^b min

CNCCC(Oc1ccc(C(F)(F)F)cc1)c1ccccc1 (stereo not drawn) [Fluoxetine, reference compound]
Decrease of immobility in the forced swim test in corticosterone-treated mice [3]: 32%
Number of Crossings ± SEM [4]: 462.5 ± 41.81

CC[C@@H](CO)NCCOc1c(C)cccc1C [Compd. II, (S)-{2-[(2-(2,6-dimethylphenoxy)ethyl]amino}butan-1-ol hydrochloride]
Rotarod test TD50 (mice [5]): 34.45 mg/kg
Ki [6]: 18000 nM
MES ED50 (mice [7]): 7.57 mg/kg
